Among the data in patent publication US20250332300A1 (priority 2024, published 2025) are Kd and IC50 values, retold here.

Read-outs that look alike come from different tables or passages of the source. Starred links: 1 amine or outer side, 2 acyl side, 3 side chain; linkers in the order of their positions; H or OH if unused. Positions of bridges follow the written chain, without caps; N, C: chain ends. Non-standard residues stand in square brackets, D forms with d. Residues, ends and D or L forms follow the SMILES beside them. Trp(5-OH) = N[C@@H](Cc1c[nH]c2ccc(O)cc12)C(=O)O; NMePhe(4-F) = CN[C@@H](Cc1ccc(F)cc1)C(=O)O; isoSer(2S) = O=C([C@@H](O)CN[*:1])[*:2]; NMehPhe = CN[C@@H](CCc1ccccc1)C(=O)O; NMeE = CN[C@@H](CCC(=O)O)C(=O)O; Gly(cPr) = N[C@H](C(=O)O)C1CC1; NMeK = CN[C@@H](CCCCN)C(=O)O; NMeC = CN[C@@H](CS)C(=O)O; Dap = NC[C@H](N)C(=O)O; X5 = O=C(C[*:2])[*:1] Some results are limits rather than exact numbers.

Holding throughout (format): binding
Experiment [1] concerns the target T1, human HER2 (23-652) (Homo sapiens, UniProt P04626). Kind of experiment: Surface plasmon resonance (SPR) for assessment of peptide affinity, human HER2. Also on record: towards human HER2 (23-652) and mouse HER2 (23-653); made in house. To be noted: SPR, human HER2 extracellular domain, 25° C., 1:1 binding model; read-out: huHER2-SPR-ONC KD. The essentials:
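Binding kinetics fitted from sensorgrams with 280 s peptide association then 3000 s dissociation (30 uL/min), using HER2 (23-652) either directly immobilized (SA/CM5) or anti-Fc-captured; 3 M magnesium chloride used for regeneration.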
Background: Surface plasmon resonance follows binding to a sensor surface in real time, without labels.

For experiment [2], the target named is T2, mouse HER2 (23-653) (Mus musculus, UniProt P70424). Kind of experiment: Surface plasmon resonance (SPR) for assessment of peptide affinity, mouse HER2. The arrangement: mouse HER2 (23-653) using a Cy5 labeled peptide as a probe; made in house. As to conditions: SPR, mouse HER2 extracellular domain, 25° C., 1:1 binding model; read-out: moHER2-SPR-ONC KD. The source says:
Each protein was immobilized either onto a SA sensorchip (Cytiva, BR-1005-31) or CM5 sensorchip (Cytiva, BR-1005-30) to a density of 800-2000 RU.

Experiment [3] concerns the target T1, human HER2 (23-652). The experiment can be described thus: TR-FRET competition assay for peptide potency, human HER2. The arrangement: towards human HER2 (23-652) and mouse HER2 (23-653); made in house; host or cells: mammalian cells. Background: Time-resolved FRET reads energy transfer from a long-lived donor to a nearby acceptor.
In experiment [4] the target is T2, mouse HER2 (23-653). Kind of experiment: TR-FRET competition assay for peptide potency, mouse HER2. The arrangement: mouse HER2 (23-653) using a Cy5 labeled peptide as a probe; made in house; host or cells: mammalian cells. As to conditions: TR-FRET competition with Cy5 labeled peptide probe, 0.1 nM mouse HER2, 24 h incubation; read-out: moHER2 TR-FRET IC50.
Where [5] appears, read: TR-FRET competition with Cy5 labeled peptide probe, 0.1 nM human HER2, 24 h incubation, read-out: huHER2 TR-FRET IC50.

Turning to `CC(=O)NCCCC[C@H]1C(=O)N[C@@H](Cc2c[nH]c3ccc(O)cc23)C(=O)N[C@@H](Cc2c[nH]c3ccccc23)C(=O)N[C@@H](C2CC2)C(=O)N(C)[C@H](C(=O)N(C)[C@@H](Cc2ccc(F)cc2)C(=O)N[C@@H](CCCCNC(=O)CCC(C(=O)O)N2CCN(CC(=O)O)CCN(CC(=O)O)CC2)C(N)=O)CNC(=O)CCC[C@H](NC(C)=O)C(=O)N[C@@H](Cc2ccc(O)cc2)C(=O)N[C@@H](CO)C(=O)N(C)[C@@H](CCc2ccccc2)C(=O)N1C` (single isomer, unassigned) [Example C35], the dissociation constant (Kd) on human HER2 (23-652) [1] and on mouse HER2 (23-653) [2] was less than 0.1 nM throughout. At human HER2 (23-652) [3] (setting [5]), the IC50 was less than 0.1 nM.

As to `CC(=O)NCCCC[C@H]1C(=O)N[C@@H](Cc2c[nH]c3ccc(O)cc23)C(=O)N[C@@H](Cc2c[nH]c3ccccc23)C(=O)N[C@@H](C2CC2)C(=O)N(C)[C@H](C(=O)N(C)[C@@H](Cc2ccc(F)cc2)C(N)=O)CCC(=O)NC[C@H](O)C(=O)N[C@@H](Cc2ccc(O)cc2)C(=O)N[C@@H](CO)C(=O)N(C)[C@@H](CCc2ccccc2)C(=O)N1C` [Example A23, (3S,6S,9S,12S,15S,18S,21S,24S,30S)-6-((1H-indol-3-yl)methyl)-12-(4-acetamidobutyl)-N-((S)-1-amino-3-(4-fluorophenyl)-1-oxopropan-2-yl)-3-cyclopropyl-24-hydroxy-9-((5-hydroxy-1H-indol-3-yl)methyl)-21-(4-hydroxybenzyl)-18-(hydroxymethyl)-N,1,13,16-tetramethyl-2,5,8,11,14,17,20,23,27-nonaoxo-15-phenethyl-1,4,7,10,13,16,19,22,26-nonaazacyclotriacontane-30-carboxamide] ([isoSer(2S)]YS[NMehPhe][NMeK](Ac)[Trp(5-OH)]W[Gly(cPr)][NMeE][NMePhe(4-F)]-NH2; lactam N-9), the Kd at mouse HER2 (23-653) [2] came out at 2.7 nM. Moreover, the figures for the 50% inhibitory concentration (IC50) at human HER2 (23-652) [3] (read-out: huHER2 TR-FRET IC50) and at mouse HER2 (23-653) [4] were 3 nM and 5.5 nM, respectively.

For the compound `CC(=O)N[C@H]1CCC(=O)NC[C@@H](C(=O)N(C)[C@@H](Cc2ccc(F)cc2)C(N)=O)N(C)C(=O)[C@H](C2CC2)NC(=O)[C@H](Cc2c[nH]c3ccccc23)NC(=O)[C@H](Cc2c[nH]c3ccc(O)cc23)NC(=O)[C@H](CO)N(C)C(=O)[C@H](CCc2ccccc2)N(C)C(=O)[C@H](CO)NC(=O)[C@H](Cc2ccc(O)cc2)NC1=O` [Example A25, (3S,6S,9S,12S,15S,18S,21S,24S,27S)-9-((1H-indol-3-yl)methyl)-27-acetamido-N—((S)-1-amino-3-(4-fluorophenyl)-1-oxopropan-2-yl)-6-cyclopropyl-12-((5-hydroxy-1H-indol-3-yl)methyl)-24-(4-hydroxybenzyl)-15,21-bis(hydroxymethyl)-N,4,16,19-tetramethyl-5,8,11,14,17,20,23,26,30-nonaoxo-18-phenethyl-1,4,7,10,13,16,19,22,25-nonaazacyclotriacontane-3-carboxamide], at mouse HER2 (23-653) [2], the Kd is 93 nM. The half-inhibitory concentration (IC50) at human HER2 (23-652) [3] (read-out: huHER2 TR-FRET IC50) came out at 82 nM; on mouse HER2 (23-653) [4], 162 nM.

Regarding `CC(=O)NCCCC[C@H]1C(=O)N[C@@H](Cc2c[nH]c3ccc(O)cc23)C(=O)N[C@@H](Cc2c[nH]c3ccccc23)C(=O)N[C@@H](C2CC2)C(=O)N(C)[C@H](C(=O)N(C)[C@@H](Cc2ccc(F)cc2)C(N)=O)CSCC(=O)NC[C@H](NC(C)=O)C(=O)N[C@@H](Cc2ccc(O)cc2)C(=O)N[C@@H](CO)C(=O)N(C)[C@@H](CCc2ccccc2)C(=O)N1C` [Example A51, (3R,6S,9S,12S,15S,18S,21S,24S,27S)-9-((1H-indol-3-yl)methyl)-27-acetamido-15-(4-acetamidobutyl)-N-((S)-1-amino-3-(4-fluorophenyl)-1-oxopropan-2-y1)-6-cyclopropyl-12-((5-hydroxy-1H-indol-3-yl)methyl)-24-(4-hydroxybenzyl)-21-(hydroxymethyl)-N,4,16,19-tetramethyl-5,8,11,14,17,20,23,26,30-nonaoxo-18-phenethyl-1-thia-4,7,10,13,16,19,22,25,29-nonaazacyclohentriacontane-3-carboxamide] (Ac-[Dap]YS[NMehPhe][NMeK](Ac)[Trp(5-OH)]W[Gly(cPr)][NMeC][NMePhe(4-F)]-NH2; linker 1-9 via X5), the dissociation constant Kd was found to be 7.3 nM at human HER2 (23-652) [1] and 10 nM at mouse HER2 (23-653) [2]. For the same compound, the IC50 at mouse HER2 (23-653) [4] worked out at 15 nM.

With `CC(=O)N[C@H]1CCCC(=O)NC[C@@H](C(=O)N(C)[C@@H](Cc2ccc(F)cc2)C(=O)N[C@@H](CCCCNC(=O)CN2CCN(CC(=O)O)CCN(CC(=O)O)CCN(CC(=O)O)CC2)C(N)=O)N(C)C(=O)[C@H](C2CC2)NC(=O)[C@H](Cc2c[nH]c3ccccc23)NC(=O)[C@H](Cc2c[nH]c3ccc(O)cc23)NC(=O)[C@H](CCCCNC(=O)CC(=O)O)N(C)C(=O)[C@H](CCc2ccccc2)N(C)C(=O)[C@H](CO)NC(=O)[C@H](Cc2ccc(O)cc2)NC1=O` [Example C19], the Kd on human HER2 (23-652) [1] stood at 5.5 nM; at mouse HER2 (23-653) [2] it was 10 nM. Also, on mouse HER2 (23-653) [4], the concentration for half-maximal inhibition (IC50) is 7.6 nM.

For the compound `CC(=O)NCCCC[C@H]1C(=O)N[C@@H](Cc2c[nH]c3ccc(O)cc23)C(=O)N[C@@H](Cc2c[nH]c3ccccc23)C(=O)N[C@@H]([C@H](C)O)C(=O)N(C)[C@H](C(=O)N(C)[C@@H](Cc2ccc(F)cc2)C(=O)N[C@@H](CCCCNC(=O)N2CCN(CC(=O)O)CC2)C(=O)N[C@@H](CCCCNC(=O)CN2CCN(CC(=O)O)CCN(CC(=O)O)CCN(CC(=O)O)CC2)C(N)=O)CNC(=O)CC[C@H](NC(C)=O)C(=O)N[C@@H](Cc2ccc(O)cc2)C(=O)N[C@@H](CO)C(=O)N(C)[C@@H](CCc2ccccc2)C(=O)N1C` [Example C24], the Kd on mouse HER2 (23-653) [2] stood at 9.3 nM. Also, the IC50 at human HER2 (23-652) [3] (setting [5]) was 13 nM; on human HER2 (23-652) [3] (value in parentheses (**): recalculated after further repetition, read-out: huHER2 TR-FRET IC50, recalculated value achieved after further repetition), 11 nM; on mouse HER2 (23-653) [4], 13 nM.

For the compound `CC(=O)NCCCC[C@H]1C(=O)N[C@@H](Cc2c[nH]c3ccc(O)cc23)C(=O)N[C@@H](Cc2c[nH]c3ccccc23)C(=O)N[C@@H](C2CC2)C(=O)N(C)[C@H](C(=O)N(C)[C@@H](Cc2ccc(F)cc2)C(=O)N[C@@H](CCCCNC(=O)CN2CCN(CC(=O)O)CCN(CC(=O)O)CCN(CC(=O)O)CC2)C(N)=O)CNC(=O)CCC[C@H](NC(C)=O)C(=O)N[C@H](Cc2ccc(O)cc2)C(=O)N[C@H](CO)C(=O)N(C)[C@@H](CCc2ccccc2)C(=O)N1C` [Example C36], the equilibrium dissociation constant (Kd) at human HER2 (23-652) [1] came to 107 nM; on mouse HER2 (23-653) [2], 472 nM. At mouse HER2 (23-653) [4], the half-inhibitory concentration (IC50) was found to be 396 nM.

Regarding `COCCOCCOCCOCCOCCOCCOCCOCCOCCOCCOCCOCCC(=O)N[C@H]1CCCC(=O)NC[C@@H](C(=O)N(C)[C@@H](Cc2ccc(F)cc2)C(=O)N[C@@H](CCCCNC(=O)CN2CCN(CC(=O)O)CCN(CC(=O)O)CCN(CC(=O)O)CC2)C(N)=O)N(C)C(=O)[C@H](C2CC2)NC(=O)[C@H](Cc2c[nH]c3ccccc23)NC(=O)[C@H](Cc2c[nH]c3ccc(O)cc23)NC(=O)[C@H](CCCCNC(C)=O)N(C)C(=O)[C@H](CCc2ccccc2)N(C)C(=O)[C@H](CO)NC(=O)[C@H](Cc2ccc(O)cc2)NC1=O` [Example C37], the Kd at mouse HER2 (23-653) [2] was 0.3 nM. Besides, the concentration for half-maximal inhibition (IC50) on human HER2 (23-652) [3] (setting [5]) worked out at 0.1 nM; at mouse HER2 (23-653) [4], 0.4 nM.

A word on the Kd: it is a measure of binding affinity in units of concentration. In general, IC50 refers to the point on the concentration scale where inhibition reaches its midpoint.
